Laboratory results reported in paper PMC12202571, “Reversal of ABCG2-mediated drug resistance by tinodasertib (ETC-206)” (Frontiers in Pharmacology, 2025).

Assays:
ABCG2 [1] = target: T1, ABCG2 (Homo sapiens, UniProt Q9UNQ0)
T1 sequence (Q9UNQ0 1-655): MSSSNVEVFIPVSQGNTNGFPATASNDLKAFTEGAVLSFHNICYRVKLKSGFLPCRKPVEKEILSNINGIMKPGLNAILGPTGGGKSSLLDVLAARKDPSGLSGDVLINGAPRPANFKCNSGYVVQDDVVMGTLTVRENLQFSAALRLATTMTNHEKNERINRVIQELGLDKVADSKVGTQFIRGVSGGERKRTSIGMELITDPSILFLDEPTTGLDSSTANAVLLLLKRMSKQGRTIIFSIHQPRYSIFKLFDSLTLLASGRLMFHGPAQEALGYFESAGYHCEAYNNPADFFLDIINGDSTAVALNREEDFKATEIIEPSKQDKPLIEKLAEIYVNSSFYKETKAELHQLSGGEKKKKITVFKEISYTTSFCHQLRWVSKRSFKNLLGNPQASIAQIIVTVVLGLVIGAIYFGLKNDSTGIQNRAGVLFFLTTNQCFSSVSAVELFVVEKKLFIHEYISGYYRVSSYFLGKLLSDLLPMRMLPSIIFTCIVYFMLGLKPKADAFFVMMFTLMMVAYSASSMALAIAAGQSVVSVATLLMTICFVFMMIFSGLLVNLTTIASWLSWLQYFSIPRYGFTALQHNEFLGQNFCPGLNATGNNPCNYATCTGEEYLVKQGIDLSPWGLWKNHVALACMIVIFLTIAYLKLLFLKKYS

ABCG2 [2] = target: T2, ABCG2 (Homo sapiens, UniProt Q9UNQ0); assay: vanadate-sensitive ATPase assay in ABCG2 membrane vesicles (colorimetric phosphate); supported by [3H]-mitoxantrone efflux inhibition in cells; assay type: biochemical
T2 construct: ABCG2-containing membrane vesicles

Row | SMILES | [3H]-mitoxantrone accumulation and efflux in ABCG2-overexpressing versus parenta (ABCG2 [1]) | IC50 (ABCG2 [2]) [nM]
1 | O=C1c2c(O)ccc(O)c2C(=O)c2c(NCCNCCO)ccc(NCCNCCO)c21 [mitoxantrone] | Efflux assays demonstrated a substantial reduction in [^3H]-mitoxantrone efflux from ABCG2-overexpressing cells | 
2 | N#Cc1ccc(-c2cnc3ccc(-c4ccc(C(=O)N5CCOCC5)cc4)cn23)cc1 [tinodasertib] |  | ~2000
